In patent US11225486B2, “Tertiary alcohols as PI3K-γ inhibitors” (Incyte Corporation, priority 2017, dated 2022):
Counter-ions that a name gives are not always drawn. Like-named read-outs stand apart in the source and are kept apart here.

Experiments:
[1] = biological target: PI3Kδ (p110δ/p85α) Recombinant Human Protein (Homo sapiens (Human), UniProt O00329); test: PI3Kδ scintillation proximity assay; format: biochemical; conditions: read-out: P13Kδ IC50
Protocol: PI3Kδ Scintillation Proximity Assay
[γ-^33P]ATP (10 mCi/mL) and Wheat Germ Agglutinin (WGA) YSi SPA Scintillation Beads was purchased from Perkin-Elmer (Waltham, Mass.). […] PI3Kδ (p110δ/p85α) Recombinant Human Protein was purchased from Eurofins (St Charles, Mo.). ATP, MgCl2, DTT, EDTA, MOPS and CHAPS were purchased from SigmaAldrich (St. Louis, Mo.).
The kinase reaction was conducted in polystyrene 384-well Greiner Bio-one white plate from Thermo Fisher Scientific in a final volume of 25 μL. Inhibitors were first diluted serially in DMSO and added to the plate wells before the addition of other reaction components. The final concentration of DMSO in the assay was 2%. The PI3Kδ assay was carried out at room temperature in 20 mM MOPS, pH 6.7, 10 mM MgCl2, 5 mM DTT and CHAPS 0.03%. Reactions were initiated by the addition of ATP, the final reaction mixture consisted of 20 μM PIP2, 2 μM ATP, 0.5 μCi [γ-^33P] […] The final concentration of SPA beads is 1.0 mg/mL. After the plate sealing, plates were shaken overnight at room temperature and centrifuged at 1500 rpm for 10 min, the radioactivity of the product was determined by scintillation counting on Topcount (PerkinElmer). IC50 determination was performed by fitting the curve of percent of the solvent control activity versus the log of the inhibitor concentration using the GraphPad Prism 6.0 software.

[2] = biological target: PI3Kγ (p110γ) Recombinant Human Protein (Homo sapiens (Human), UniProt P48736); test: PI3K-γ scintillation proximity assay; format: biochemical
Sequence of PI3Kγ (p110γ) Recombinant Human Protein (P48736 whole entry): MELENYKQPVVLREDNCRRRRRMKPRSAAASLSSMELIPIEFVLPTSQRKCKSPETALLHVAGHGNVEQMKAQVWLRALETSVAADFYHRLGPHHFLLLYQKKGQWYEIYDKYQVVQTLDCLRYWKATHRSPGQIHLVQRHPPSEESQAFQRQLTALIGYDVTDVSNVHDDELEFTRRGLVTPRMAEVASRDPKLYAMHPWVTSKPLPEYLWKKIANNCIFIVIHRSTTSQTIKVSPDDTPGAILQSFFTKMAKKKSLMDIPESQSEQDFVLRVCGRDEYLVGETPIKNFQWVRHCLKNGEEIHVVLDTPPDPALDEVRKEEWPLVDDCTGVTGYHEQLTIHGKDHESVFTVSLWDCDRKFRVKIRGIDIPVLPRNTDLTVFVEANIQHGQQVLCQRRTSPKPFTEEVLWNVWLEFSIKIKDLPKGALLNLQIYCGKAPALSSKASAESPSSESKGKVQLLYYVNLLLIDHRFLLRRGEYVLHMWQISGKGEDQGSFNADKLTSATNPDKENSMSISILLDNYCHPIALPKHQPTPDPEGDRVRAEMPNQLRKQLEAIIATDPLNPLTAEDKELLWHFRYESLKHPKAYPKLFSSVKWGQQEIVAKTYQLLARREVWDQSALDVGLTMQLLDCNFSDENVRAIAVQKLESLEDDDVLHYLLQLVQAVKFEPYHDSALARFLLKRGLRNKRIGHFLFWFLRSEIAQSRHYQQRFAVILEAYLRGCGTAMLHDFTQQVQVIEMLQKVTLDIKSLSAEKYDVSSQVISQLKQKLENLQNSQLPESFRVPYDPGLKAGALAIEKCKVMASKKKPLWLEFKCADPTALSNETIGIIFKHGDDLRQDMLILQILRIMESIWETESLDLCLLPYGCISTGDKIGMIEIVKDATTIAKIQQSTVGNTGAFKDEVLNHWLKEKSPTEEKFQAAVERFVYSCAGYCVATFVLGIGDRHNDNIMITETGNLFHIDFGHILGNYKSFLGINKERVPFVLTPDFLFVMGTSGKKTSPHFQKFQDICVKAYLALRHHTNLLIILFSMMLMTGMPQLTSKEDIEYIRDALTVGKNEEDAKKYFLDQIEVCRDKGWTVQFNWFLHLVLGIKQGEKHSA
Description: Example B. PI3K-γ Scintillation Proximity Assay
[γ-^33P]ATP (10 mCi/mL) and Wheat Germ Agglutinin (WGA) YSi SPA Scintillation Beads was purchased from Perkin-Elmer (Waltham, Mass.). Lipid kinase substrate, D-myo-Phosphatidylinositol 4,5-bisphosphate (PtdIns(4,5)P2)D (+)-sn-1,2-di-O-octanoylglyceryl, 3-O-phospho linked (PIP2), CAS 204858-53-7, was purchased from Echelon Biosciences (Salt Lake City, Utah). PI3Kγ (p110γ) Recombinant Human Protein was purchased from Life technology (Grand Island, N.Y.). ATP, MgCl2, DTT, EDTA, MOPS and CHAPS were purchased from Sigma-Aldrich (St. Louis, Mo.).
The kinase reaction was conducted in polystyrene 384-well Greiner Bio-one white plate from Thermo Fisher Scientific in a final volume of 25 μL. Inhibitors were first diluted serially in DMSO and added to the plate wells before the addition of other reaction components. The final concentration of DMSO in the assay was 2%. The PI3Kγ assay was carried out at room temperature in 20 mM MOPS, pH 6.7, 10 mM MgCl2, 5 mM DTT and CHAPS 0.03%. Reactions were initiated by the addition of ATP, the final reaction mixture consisted of 20 μM PIP2, 2 μM ATP, 0.5 μCi [γ-^33P] ATP, 13 nM PI3Kγ. Reactions were incubated for 120 min and terminated by the addition of 40 μL SPA beads suspended in quench buffer: 163 mM potassium phosphate pH 7.8, 20% glycerol, 25 mM EDTA. The final concentration of SPA beads is 1.0 mg/mL. After the plate sealing, plates were shaken overnight at room temperature and centrifuged at 1500 rpm for 10 min, the radioactivity of the product was determined by scintillation counting on Topcount (Perkin-Elmer). IC50 determination was performed by fitting the curve of percent of the solvent control activity versus the log of the inhibitor concentration using the GraphPad Prism 6.0 software.

[3] = tested on: Phosphorylated Ribosomal Protein S6 (RPS6) in THP-1 cells; test: THP-1 RPS6 ELISA assay; format: cell-based; conditions: Homo sapiens, THP-1, THP-1 cells, 10 nM MCP-1 stimulation, phospho-RPS6 ELISA; read-out: PI3Kγ_THP1_RPS6_ELISA IC50
Protocol: Example A. THP-1 RPS6 ELISA Assay
To measure the Phosphorylated Ribosomal Protein S6 (RPS6) in cell lysates, THP-1 cells (Human Acute Monocytic Leukemia) are purchased from ATCC (Manassas, Va.) and maintained in RPMI with 10% FBS (Gibco/Life Technologies, Carlsbad, Calif.). For the assay, THP-1 cells are serum starved overnight in RPMI, then plated in RPMI (2×10^5 cells/well in 90 μL) into 96-well flat-bottom tissue culture treated plates (Corning, Corning, N.Y.), in the presence or absence of a concentration range of test compounds. Covered plates are incubated for 2 hours at 37° C., 5% CO2 then treated with or without 10 nM MCP-1(MYBioSource, San Diego, Calif.) for 15 minutes at 37° C., 5% CO2. Plates are centrifuged at 1600 RPM and supernatants are removed. Cells are lysed in Lysis Buffer (Cell Signaling, Danvers, Mass.) with Protease Inhibitor (Calbiochem/EMD, Germany), PMSF (Sigma, St Louis Mo.), HALTS (Thermo Fisher, Rockford, Ill.) for 30 min on wet ice. Cell lysates are frozen at −80° C. before testing. The lysates are tested in the Human/Mouse/Rat Phospho-RPS6 ELISA (R&D Systems, Inc. Minn, Minn.). The plate is measured using a microplate reader (SpectraMax M5—Molecular Devices, LLC Sunnyvale, Calif.) set to 450 nm with a wavelength correction of 540. […]

[4] = 20 μM PIP2, 2 μM ATP, 3.4 nM PI3Kδ
[5] = 20 μM PIP2, 2 μM ATP, 13 nM PI3Kγ

Sequence of PI3Kδ (p110δ/p85α) Recombinant Human Protein (O00329 whole entry): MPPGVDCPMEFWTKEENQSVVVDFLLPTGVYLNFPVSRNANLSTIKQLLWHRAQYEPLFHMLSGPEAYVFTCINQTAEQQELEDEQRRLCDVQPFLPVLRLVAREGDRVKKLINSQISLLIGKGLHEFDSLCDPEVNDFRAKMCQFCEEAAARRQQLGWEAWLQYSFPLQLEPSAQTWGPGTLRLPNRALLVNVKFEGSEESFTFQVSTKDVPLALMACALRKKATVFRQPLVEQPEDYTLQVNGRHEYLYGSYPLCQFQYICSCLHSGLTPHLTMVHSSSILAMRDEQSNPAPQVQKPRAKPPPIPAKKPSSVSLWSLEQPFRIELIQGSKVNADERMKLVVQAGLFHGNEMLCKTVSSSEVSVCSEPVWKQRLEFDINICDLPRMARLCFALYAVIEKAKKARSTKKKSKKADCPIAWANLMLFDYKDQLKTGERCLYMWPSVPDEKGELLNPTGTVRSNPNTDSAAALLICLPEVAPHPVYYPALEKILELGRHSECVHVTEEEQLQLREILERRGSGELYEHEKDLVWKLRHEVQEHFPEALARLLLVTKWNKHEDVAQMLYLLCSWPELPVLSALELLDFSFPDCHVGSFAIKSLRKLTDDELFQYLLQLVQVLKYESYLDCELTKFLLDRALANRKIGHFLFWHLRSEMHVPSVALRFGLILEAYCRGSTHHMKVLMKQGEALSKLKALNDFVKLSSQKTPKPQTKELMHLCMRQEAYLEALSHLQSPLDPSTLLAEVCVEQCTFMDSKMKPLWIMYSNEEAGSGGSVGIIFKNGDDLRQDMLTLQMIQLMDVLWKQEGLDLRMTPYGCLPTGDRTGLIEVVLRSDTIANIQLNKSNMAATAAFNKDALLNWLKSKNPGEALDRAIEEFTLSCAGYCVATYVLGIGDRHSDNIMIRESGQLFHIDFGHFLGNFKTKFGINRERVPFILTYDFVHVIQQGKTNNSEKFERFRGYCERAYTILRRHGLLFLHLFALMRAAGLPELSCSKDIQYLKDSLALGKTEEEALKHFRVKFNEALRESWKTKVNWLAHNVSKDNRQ
Sequence of PI3Kδ (p110δ/p85α) Recombinant Human Protein (P27986 whole entry partner): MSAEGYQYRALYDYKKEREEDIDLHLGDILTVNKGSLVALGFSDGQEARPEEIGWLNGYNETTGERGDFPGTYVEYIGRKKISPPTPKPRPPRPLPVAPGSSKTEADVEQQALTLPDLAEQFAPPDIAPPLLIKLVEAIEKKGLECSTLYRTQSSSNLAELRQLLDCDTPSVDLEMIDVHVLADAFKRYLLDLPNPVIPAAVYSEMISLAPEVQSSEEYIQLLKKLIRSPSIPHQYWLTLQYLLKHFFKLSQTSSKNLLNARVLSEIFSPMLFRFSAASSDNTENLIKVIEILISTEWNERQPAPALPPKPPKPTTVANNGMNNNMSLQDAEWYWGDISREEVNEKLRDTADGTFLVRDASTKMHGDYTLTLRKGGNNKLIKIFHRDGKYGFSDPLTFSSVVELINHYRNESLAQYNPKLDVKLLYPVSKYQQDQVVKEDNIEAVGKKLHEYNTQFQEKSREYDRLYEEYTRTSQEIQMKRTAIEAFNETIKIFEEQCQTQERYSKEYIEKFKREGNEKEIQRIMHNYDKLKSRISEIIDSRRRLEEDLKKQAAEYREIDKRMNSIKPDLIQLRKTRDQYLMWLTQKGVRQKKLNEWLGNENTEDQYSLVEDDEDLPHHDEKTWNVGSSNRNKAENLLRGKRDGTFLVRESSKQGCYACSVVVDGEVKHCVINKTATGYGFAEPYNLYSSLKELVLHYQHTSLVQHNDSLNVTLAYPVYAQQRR

SMILES | IC50 [1, 4] [nM] | IC50 [2, 5] [nM] | IC50 [3] [nM] | IC50 [1] [nM] | IC50 [2] [nM]
Cc1ccc(C(O)(CO)C(F)(F)F)cc1-c1cnc2c(N)nc(-c3cnn(C)c3)cn12 (stereo not drawn) [Example 69, 2-(3-(8-Amino-6-(1-methyl-1H-pyrazol-4-yl)imidazo[1,2-a]pyrazin-3-yl)-4-methylphenyl)-3,3,3-trifluoropropane-1,2-diol trifluoroacetate salt] |  |  |  | < 100 | < 100
Cc1ncc(-c2cn3c(-c4cc(C(O)(CO)C(F)(F)F)ccc4C)cnc3c(N)n2)s1 (stereo not drawn) [Example 70, 2-(3-(8-Amino-6-(2-methylthiazol-5-yl)imidazo[1,2-a]pyrazin-3-yl)-4-methylphenyl)-3,3,3-trifluoropropane-1,2-diol trifluoroacetate salt] |  |  |  | < 100 | < 100
Cc1ccc(C(O)(CO)C(F)(F)F)cc1-c1cnc2c(N)nc(-c3cnco3)cn12 (stereo not drawn) [Example 71, 2-(3-(8-Amino-6-(oxazol-5-yl)imidazo[1,2-a]pyrazin-3-yl)-4-methylphenyl)-3,3,3-trifluoropropane-1,2-diol trifluoroacetate salt] |  |  |  | < 100 | < 100

Now from value to compound, other results behind:

IC50 [1, 4] [nM] | IC50 [2, 5] [nM] | IC50 [3] [nM] | SMILES | IC50 [1] [nM] | IC50 [2] [nM]
< 100 | < 100 |  | Cc1ncc(-c2cn3c(-c4cc(C(O)(CO)C(F)(F)F)ccc4C)cnc3c(N)n2)o1 (single isomer, unassigned) [Example 68, 2-(3-(8-Amino-6-(2-methyloxazol-5-yl)imidazo[1,2-o]pyrazin-3-yl)-4-methylphenyl)-3,3,3-trifluoropropane-1,2-diol] |  | 
< 100 | < 100 |  | Cc1ccc(C(O)(C(N)=O)C(F)(F)F)cc1-c1cnc2c(N)nc(C(C)(C)O)cn12 (single isomer, unassigned) [Example 255, 2-(3-(8-Amino-6-(2-hydroxypropan-2-yl)imidazo[1,2-a]pyrazin-3-yl)-4-methylphenyl)-3,3,3-trifluoro-2-hydroxypropanamide trifluoroacetate salt (single enantiomer)] |  | 
100 to 500 | < 100 |  | Cc1ccc(C(O)(C(N)=O)C(F)(F)F)cc1-c1cnc2c(N)nc(C(=O)NC34CCC(O)(CC3)C4)cn12 (single isomer, unassigned) [Example 260, 8-Amino-3-(5-(3-amino-1,1,1-trifluoro-2-hydroxy-3-oxopropan-2-yl)-2-methylphenyl)-N-(4-hydroxybicyclo[2.2.1]heptan-1-yl)imidazo[1,2-a]pyrazine-6-carboxamide trifluoroacetate salt (single enantiomer)] |  | 
< 100 | < 100 | < 100 | Cc1ccc(C(C)(O)C(F)F)cc1-c1cnc2c(N)nc(-c3c[nH]nc3C)cn12 (stereo not drawn) [Example 47, 2-(3-(8-Amino-6-(3-methyl-1H-pyrazol-4-yl)imidazo[1,2-a]pyrazin-3-yl)-4-methylphenyl)-1,1-difluoropropan-2-ol, 1.2TFA] |  | 
